The source of these data is patent US20070197577A1 (priority 2003, published 2007).

Series [1] relates to anthrax. To be noted: monkey, in vivo; cited from earlier work.

The compound `O=C(O)c1cccc(N(CCc2ccccc2)c2nnc(-c3cccc(Oc4cccc(C(F)(F)F)c4)c3)s2)c1` showed a melting point of 92 to 93 °C.

Compound `CC(C)CC(NCC(=O)NO)C(=O)NC(Cc1ccc2ccccc2c1)C(=O)NC(C)C(N)=O` (stereo not shown) displayed a melting point of 205 to 212 °C.

In the case of `O=C(O)c1cn(C2CC2)c2cc(N3CCNCC3)c(F)cc2c1=O` [ciprofloxacin], the “monkeys that survived a lethal aerosol challenge” value in series [1] is on record as 8 of 9.

Consider penicillin, for which, in series [1], the “monkeys that survived a lethal aerosol challenge” value is listed as 7 of 10.

Broadly, the melting point is the temperature of the solid-liquid transition.
